# Results from patent publication US20260108527A1, “POLO LIKE KINASE 4 INHIBITORS” (ORIC Pharmaceuticals, Inc., priority 2022, published 2026).
# Target: T1, human recombinant PLK4 (Homo sapiens, UniProt O00444)
# T1 construct: purchased ThermoFisher PV6396
# T1 sequence (O00444 1-970): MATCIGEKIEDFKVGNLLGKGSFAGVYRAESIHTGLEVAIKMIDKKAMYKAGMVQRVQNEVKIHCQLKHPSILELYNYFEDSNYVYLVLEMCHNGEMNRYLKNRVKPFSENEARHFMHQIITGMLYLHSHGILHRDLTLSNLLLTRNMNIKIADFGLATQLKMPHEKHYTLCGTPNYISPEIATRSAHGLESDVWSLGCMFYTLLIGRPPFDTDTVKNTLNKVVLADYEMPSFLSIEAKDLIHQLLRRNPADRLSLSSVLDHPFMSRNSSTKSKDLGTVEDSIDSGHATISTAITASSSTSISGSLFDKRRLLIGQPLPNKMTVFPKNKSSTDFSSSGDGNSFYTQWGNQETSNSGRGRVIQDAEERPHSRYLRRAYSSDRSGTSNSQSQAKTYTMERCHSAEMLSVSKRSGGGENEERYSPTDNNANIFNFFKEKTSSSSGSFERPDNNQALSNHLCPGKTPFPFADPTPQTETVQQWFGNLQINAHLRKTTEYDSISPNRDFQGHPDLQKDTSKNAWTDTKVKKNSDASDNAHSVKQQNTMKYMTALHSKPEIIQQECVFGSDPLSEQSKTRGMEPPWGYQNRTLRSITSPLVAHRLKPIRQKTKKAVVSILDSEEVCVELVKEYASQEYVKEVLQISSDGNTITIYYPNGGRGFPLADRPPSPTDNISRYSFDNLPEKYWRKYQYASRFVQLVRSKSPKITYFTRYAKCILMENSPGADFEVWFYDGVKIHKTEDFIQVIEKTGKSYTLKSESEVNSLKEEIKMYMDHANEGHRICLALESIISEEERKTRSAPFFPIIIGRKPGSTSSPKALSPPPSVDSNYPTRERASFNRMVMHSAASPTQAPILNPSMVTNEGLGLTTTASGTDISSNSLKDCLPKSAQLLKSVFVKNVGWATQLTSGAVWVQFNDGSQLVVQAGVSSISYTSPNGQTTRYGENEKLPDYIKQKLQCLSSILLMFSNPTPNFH
# Experiment: PLK4 Biochemical Assay (ADP-Glo)
# Conditions: 0.5 nM PLK4, 8.0 μM ATP, 4.7 μM MBP, 6 hours at RT
# Procedure: Activity of human recombinant PLK4 (ThermoFisher, cat #PV6396) was measured by quantification of adenosine diphosphate (ADP) using the ADP-Glo Kinase Assay Kit (Promega, cat #V9102). […] 5 μL of 1.0 nM PLK4 protein in assay buffer (50 mM HEPES, pH 7.5, 0.01% Brij-35, 0.01% BSA, 10 mM MgCl2, 1 mM EGTA, 1 mM DTT) was added to the plates. Test compounds and PLK4 were incubated for 15 minutes at room temperature (RT). […] Reactions were stopped and the remaining ATP depleted by adding 10 μL of ADP-Glo reagent (Promega, cat #V912B) and incubating for 40 minutes at RT. The simultaneous conversion of the remaining ADP to ATP and measurement of the newly synthesized ATP was achieved by addition of 20 μL Kinase Detection reagent (Promega, cat #V914B), incubation for 30 min at RT, and luminescence detection using the EnVision plate reader (PerkinElmer). […] The IC50 values reported in Table 2 were determined using four parameter non-linear regression curve fit.
row,IC50,SMILES
1,0.84 nM,"COc1ccc2c(c1)[C@]1(C[C@H]1c1ccc3c(Nc4cc(-c5cnn(C)c5)cnc4OC)n[nH]c3c1)C(=O)N2 [Example 26, (1R,2S)-5′-methoxy-2-(3-{[2-methoxy-5-(1-methyl-1H-pyrazol-4-yl)pyridin-3-yl]amino}-1H-indazol-6-yl)spiro[cyclopropane-1,3′-indol]-2′(1′H)-one]"
2,1.06 nM,"COc1ccc2c(c1)[C@]1(C[C@H]1c1ccc3c(Nc4cc(-c5cnn(C)c5)ncc4OC)n[nH]c3c1)C(=O)N2 [Example 27, (1R,2S)-5′-methoxy-2-(3-{[5-methoxy-2-(1-methyl-1H-pyrazol-4-yl)pyridin-4-yl]amino}-1H-indazol-6-yl)spiro[cyclopropane-1,3′-indol]-2′(1′H)-one]"
3,0.341 nM,"CCOc1ccc(-c2nccs2)nc1Nc1n[nH]c2cc([C@@H]3C[C@@]34C(=O)Nc3ccc(OC)cc34)ccc12 [Example 28, (1R,2S)-2-(3-{[3-ethoxy-6-(1,3-thiazol-2-yl)pyridin-2-yl]amino}-1H-indazol-6-yl)-5′-methoxyspiro[cyclopropane-1,3′-indol]-2′(1′H)-one]"
4,1.95 nM,"CCOc1cc(-c2cn(C)cn2)ccc1Nc1n[nH]c2cc([C@@H]3C[C@@]34C(=O)Nc3ccc(OC)cc34)ccc12 [Example 29, (1R,2S)-2-{3-[2-ethoxy-4-(1-methyl-1H-imidazol-4-yl)anilino]-1H-indazol-6-yl}-5′-methoxyspiro[cyclopropane-1,3′-indol]-2′(1′H)-one]"
5,0.694 nM,"COc1ccc2c(c1)[C@]1(C[C@H]1c1ccc3c(Nc4cc(-c5ccsn5)ccc4OC)n[nH]c3c1)C(=O)N2 [Example 30, (1R,2S)-5′-methoxy-2-{3-[2-methoxy-5-(1,2-thiazol-3-yl)anilino]-1H-indazol-6-yl}spiro[cyclopropane-1,3′-indol]-2′(1′H)-one]"
6,0.259 nM,"COc1ccc2c(c1)[C@]1(C[C@H]1c1ccc3c(Nc4nc(-c5cnn(C)c5)ncc4OC)n[nH]c3c1)C(=O)N2 [Example 31, (1R,2S)-5′-methoxy-2-(3-{[5-methoxy-2-(1-methyl-1H-pyrazol-4-yl)pyrimidin-4-yl]amino}-1H-indazol-6-yl)spiro[cyclopropane-1,3′-indol]-2′(1′H)-one]"
7,0.827 nM,"COc1ccc2c(c1)[C@]1(C[C@H]1c1ccc3c(Nc4cc(-c5ccon5)ccc4OC)n[nH]c3c1)C(=O)N2 [Example 32, (1R,2S)-5′-methoxy-2-{3-[2-methoxy-5-(1,2-oxazol-3-yl)anilino]-1H-indazol-6-yl}spiro[cyclopropane-1,3′-indol]-2′(1′H)-one]"
8,0.753 nM,"CCOc1ccc(-c2nccs2)cc1Nc1n[nH]c2cc([C@@H]3C[C@@]34C(=O)Nc3ccc(OC)cc34)ccc12 [Example 33, (1R,2S)-2-{3-[2-ethoxy-5-(1,3-thiazol-2-yl)anilino]-1H-indazol-6-yl}-5′-methoxyspiro[cyclopropane-1,3′-indol]-2′(1′H)-one]"
9,1.07 nM,"CCOc1cnc(-c2nccs2)cc1Nc1n[nH]c2cc([C@@H]3C[C@@]34C(=O)Nc3ccc(OC)cc34)ccc12 [Example 34, (1R,2S)-2-(3-{[5-ethoxy-2-(1,3-thiazol-2-yl)pyridin-4-yl]amino}-1H-indazol-6-yl)-5′-methoxyspiro[cyclopropane-1,3′-indol]-2′(1′H)-one]"
10,0.338 nM,"CCOc1ncc(-c2nccs2)nc1Nc1n[nH]c2cc([C@@H]3C[C@@]34C(=O)Nc3ccc(OC)cc34)ccc12 [Example 35, (1R,2S)-2-(3-{[3-ethoxy-6-(1,3-thiazol-2-yl)pyrazin-2-yl]amino}-1H-indazol-6-yl)-5′-methoxyspiro[cyclopropane-1,3′-indol]-2′(1′H)-one]"
11,1.8 nM,"CCOc1ccc(-c2cnn(C)c2)cc1Nc1n[nH]c2cc([C@@H]3C[C@@]34C(=O)Nc3ccc(OC)cc34)ccc12 [Example 37, (1R,2S)-2-{3-[2-ethoxy-5-(1-methyl-1H-pyrazol-4-yl)anilino]-1H-indazol-6-yl}-5′-methoxyspiro[cyclopropane-1,3′-indol]-2′(1′H)-one]"
12,0.817 nM,"CCOc1cc(-n2cncn2)cnc1Nc1n[nH]c2cc([C@@H]3C[C@@]34C(=O)Nc3ccc(OC)cc34)ccc12 [Example 38, (1R,2S)-2-(3-{[3-ethoxy-5-(1H-1,2,4-triazol-1-yl)pyridin-2-yl]amino}-1H-indazol-6-yl)-5′-methoxyspiro[cyclopropane-1,3′-indol]-2′(1′H)-one]"
13,1.93 nM,"COc1ccc2c(c1)[C@]1(C[C@H]1c1ccc3c(Nc4cc(-c5cnn(CC(F)F)c5)ccc4OC)n[nH]c3c1)C(=O)N2 [Example 39, (1R,2S)-2-(3-{5-[1-(2,2-difluoroethyl)-1H-pyrazol-4-yl]-2-methoxyanilino}-1H-indazol-6-yl)-5′-methoxyspiro[cyclopropane-1,3′-indol]-2′(1′H)-one]"
14,0.28 nM,"COc1ccc2c(c1)[C@]1(C[C@H]1c1ccc3c(Nc4nc(-c5cnco5)ncc4OC)n[nH]c3c1)C(=O)N2 [Example 40, (1R,2S)-5′-methoxy-2-(3-{[5-methoxy-2-(1,3-oxazol-5-yl)pyrimidin-4-yl]amino}-1H-indazol-6-yl)spiro[cyclopropane-1,3′-indol]-2′(1′H)-one]"
15,0.722 nM,"CCOc1ncc(-c2nccs2)cc1Nc1n[nH]c2cc([C@@H]3C[C@@]34C(=O)Nc3ccc(OC)cc34)ccc12 [Example 41, (1R,2S)-2-(3-{[2-ethoxy-5-(1,3-thiazol-2-yl)pyridin-3-yl]amino}-1H-indazol-6-yl)-5′-methoxyspiro[cyclopropane-1,3′-indol]-2′(1′H)-one]"
16,1.31 nM,"COc1ccc2c(c1)[C@]1(C[C@H]1c1ccc3c(Nc4cc(-c5cocn5)cnc4OC)n[nH]c3c1)C(=O)N2 [Example 42, (1R,2S)-5′-methoxy-2-(3-{[2-methoxy-5-(1,3-oxazol-4-yl)pyridin-3-yl]amino}-1H-indazol-6-yl)spiro[cyclopropane-1,3′-indol]-2′(1′H)-one]"
17,0.16 nM,"CCOc1cnc(-c2nccs2)nc1Nc1n[nH]c2cc([C@@H]3C[C@@]34C(=O)Nc3ccc(OC)cc34)ccc12 [Example 44, (1R,2S)-2-(3-{[5-ethoxy-2-(1,3-thiazol-2-yl)pyrimidin-4-yl]amino}-1H-indazol-6-yl)-5′-methoxyspiro[cyclopropane-1,3′-indol]-2′(1′H)-one]"
18,0.139 nM,"CCOc1cnc(C#CC(C)(C)O)nc1Nc1n[nH]c2cc([C@@H]3C[C@@]34C(=O)Nc3ccc(OC)cc34)ccc12 [Example 45, (1R,2S)-2-(3-((5-ethoxy-2-(3-hydroxy-3-methylbut-1-yn-1-yl)pyrimidin-4-yl)amino)-1H-indazol-6-yl)-5′-methoxyspiro[cyclopropane-1,3′-indolin]-2′-one]"
19,1.25 nM,"COc1ccc2c(c1)[C@]1(C[C@H]1c1ccc3c(Nc4cc(-c5cnn(CC(F)F)c5)cnc4OC)n[nH]c3c1)C(=O)N2 [Example 46, (1R,2S)-2-(3-((5-(1-(2,2-difluoroethyl)-1H-pyrazol-4-yl)-2-methoxypyridin-3-yl)amino)-1H-indazol-6-yl)-5′-methoxyspiro[cyclopropane-1,3′-indolin]-2′-one]"
